How the values were obtained:
human orexin-2 receptor = human orexin-2 receptor (Homo sapiens (Human), UniProt O43614); experiment: FLIPR Ca2+ Flux Assay, orexin-2 receptor (hOX2R FLIPR); type: cell-based; conditions: CHO cells expressing the human orexin-2 receptor; agonist 70 pM Ala-6,12 human orexin-A
Protocol: (§1) The utility of the compounds in accordance with the present invention as orexin receptor OX1R and/or OX2R antagonists may be readily determined without undue experimentation by methodology well known in the art, including the “FLIPR Ca^2+ Flux Assay” (Okumura et al., Biochem. Biophys. Res. Comm. 280:976-981, 2001). In a typical experiment the OX1 and OX2 receptor antagonistic activity of the compounds of the present invention was determined in accordance with the following experimental method. For intracellular calcium measurements, Chinese hamster ovary (CHO) cells expressing the rat orexin-1 receptor or the human orexin-2 receptor, are grown in Iscove's modified DMEM containing 2 mM L-glutamine, […], 1% hypoxanthine-thymidine supplement, 100 U/ml penicillin, 100 μg/ml streptomycin and 10% heat-inactivated fetal calf serum (FCS). The cells are seeded at 20,000 cells/well into Becton-Dickinson black 384-well clear bottom sterile plates coated with poly-D-lysine. All reagents were from GIBCO-Invitrogen Corp. The seeded plates are incubated overnight at 37° C. and 5% CO2. Ala-6,12 human orexin-A as the agonist is prepared as a 1 mM stock solution in 1% bovine serum albumin (BSA) and diluted in assay buffer (HBSS containing 20 mM HEPES, 0.1% BSA and 2.5 mM probenecid, pH7.4) for use in the assay at a final concentration of 70 pM. Test compounds are prepared as 10 mM stock solution in DMSO, then diluted in 384-well plates, first in DMSO, then assay buffer. On the day of the assay, cells are washed 3 times with 100 μl assay buffer and then incubated for 60 min (37° C., 5% CO2) in 60 μl assay buffer containing 1 μM Fluo-4AM ester, 0.02% pluronic acid, and 1% BSA. The dye loading solution is then aspirated and cells are washed 3 times with 100 μl assay buffer. 30 μl of that same buffer is left in each well. Within the Fluorescent Imaging Plate Reader (FLIPR, Molecular Devices), test compounds are added to the plate in a volume of 25 μl, incubated for 5 min and finally 25 μl of agonist is added. Fluorescence is measured for each well at 1 second intervals for 5 minutes and the height of each fluorescence peak is compared to the height of the fluorescence peak induced by 70 pM Ala-6,12 orexin-A with buffer in place of antagonist. For each antagonist, IC50 value (the concentration of compound needed to inhibit 50% of the agonist response) is determined. Alternatively, compound potency can be assessed by a radioligand binding assay (described in Bergman et. al. Bioorg. Med. Chem. Lett. 2008, 18, 1425-1430) in which the inhibition constant (Ki) is determined in membranes prepared from CHO cells expressing either the OX1 or OX2 receptor. The intrinsic orexin receptor antagonist activity of a compound which may be used in the present invention may be determined by these assays.

[1] = target: hOXIR (orexin-1 receptor) (Homo sapiens, UniProt O43613); experiment: FLIPR Ca2+ Flux Assay, orexin-1 receptor (hOXIR FLIPR); type: cell-based; conditions: CHO cells expressing the orexin-1 receptor (method text: rat; table head: hOXIR); agonist 70 pM Ala-6,12 human orexin-A
Protocol: as §1

Chain of human orexin-2 receptor (O43614 whole entry): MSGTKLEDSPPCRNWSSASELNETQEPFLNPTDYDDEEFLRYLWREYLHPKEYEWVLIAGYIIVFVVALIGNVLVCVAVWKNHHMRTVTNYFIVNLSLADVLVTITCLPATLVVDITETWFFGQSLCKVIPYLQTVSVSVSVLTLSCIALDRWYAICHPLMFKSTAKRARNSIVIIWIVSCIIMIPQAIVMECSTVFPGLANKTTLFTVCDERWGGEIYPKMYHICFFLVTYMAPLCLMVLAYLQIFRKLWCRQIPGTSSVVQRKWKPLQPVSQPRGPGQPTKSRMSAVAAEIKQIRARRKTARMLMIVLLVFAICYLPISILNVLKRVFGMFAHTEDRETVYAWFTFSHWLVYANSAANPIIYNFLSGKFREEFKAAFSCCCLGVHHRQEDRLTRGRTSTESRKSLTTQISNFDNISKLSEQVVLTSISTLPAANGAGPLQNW

Row | Compound | IC50 (human orexin-2 receptor) | IC50 [1]
1 | COc1ccc(C(=O)N2C[C@H](n3ncc(C(C)(C)O)n3)CC[C@H]2C)c(-n2nccn2)c1 [Example 54, 2-{2-[(3R,6R)-1-{[4-methoxy-2-(2H-1,2,3-triazol-2-yl)phenyl]carbonyl}-6-methylpiperidin-3-yl]-2H-1,2,3-triazol-4-yl}propan-2-ol] | 53.3 nM | > 10000 nM
2 | C[C@@H]1CC[C@@H](n2ncc(C(C)(C)O)n2)CN1C(=O)c1ccccc1N1CCCC1 [Example 49, 2-(2-{(3R,6R)-6-methyl-1-[(2-pyrrolidin-1-ylphenyl)carbonyl]piperidin-3-yl}-2H-1,2,3-triazol-4-yl)propan-2-ol] | 29.1 nM | 2830 nM
3 | C[C@@H]1CC[C@@H](n2ncc(C(C)(C)O)n2)CN1C(=O)c1ccccc1[C@H]1CC1(F)F [Example 23, 2-{2-[(3R,6R)-1-({2-[(1R)-2,2-difluorocyclopropyl]phenyl}carbonyl)-6-methylpiperidin-3-yl]-2H-1,2,3-triazol-4-yl}propan-2-ol] | 46.9 nM | > 10000 nM
4 | C[C@@H]1CC[C@@H](n2ncc(C(C)(C)O)n2)CN1C(=O)c1cccnc1-n1nccn1 [Example 59, 2-{2-[(3R,6R)-6-Methyl-1-{[2-(2H-1,2,3-triazol-2-yl)pyridin-3-yl]carbonyl}piperidin-3-yl]-2H-1,2,3-triazol-4-yl}propan-2-ol] | 400 nM | > 10000 nM
5 | C[C@@H]1CC[C@@H](n2ncc(C(C)(C)O)n2)CN1C(=O)c1cccnc1OCC(F)(F)F [Example 14, ((2R,5R)-5-(4-(2-Hydroxypropan-2-yl)-2H-1,2,3-triazol-2-yl)-2-methylpiperidin-1-yl)(2-(2,2,2-trifluoroethoxy)pyridin-3-yl)methanone] | 15.9 nM | 8790 nM
6 | COc1ccc(C(=O)N2C[C@H](n3cc(C(C)(C)O)cn3)CC[C@H]2C)c(C2CC2)n1 [Example 96, 2-(1-{(3R,6R)-1-[(2-Cyclopropyl-6-methoxypyridin-3-yl)carbonyl]-6-methylpiperidin-3-yl}-1H-pyrazol-4-yl)propan-2-ol] | 1600 nM | > 10000 nM
7 | C[C@@H]1CC[C@@H](n2ncc(C(C)(C)O)n2)CN1C(=O)c1ccccc1OC(F)(F)F [Example 19, ((2R,5R)-5-(4-(2-Hydroxypropan-2-yl)-2H-1,2,3-triazol-2-yl)-2-methylpiperidin-1-yl)(2-(trifluoromethoxy)phenyl)methanone] | 12.1 nM | 2800 nM
8 | Cc1ccc(-n2nccn2)c(C(=O)N2C[C@H](n3ncc(C(C)(C)O)n3)CC[C@H]2C)c1 [Example 52, 2-{2-[(3R,6R)-6-methyl-1-{[5-methyl-2-(2H-1,2,3-triazol-2-yl)phenyl]carbonyl}piperidin-3-yl]-2H-1,2,3-triazol-4-yl}propan-2-ol] | 59.8 nM | 3090 nM
9 | C[C@@H]1CC[C@@H](n2ncc(C(C)(C)O)n2)CN1C(=O)c1ccsc1-n1nccn1 [Example 33, 2-{2-[(3R,6R)-6-methyl-1-{[2-(2H-1,2,3-triazol-2-yl)thiophen-3-yl]carbonyl}piperidin-3-yl]-2H-1,2,3-triazol-4-yl}propan-2-ol] | 18.4 nM | 2560 nM
10 | Cc1ccc(C(=O)N2C[C@H](n3ncc(C(C)(C)O)n3)CC[C@H]2C)c(-n2nccn2)n1 [Example 55, 2-{2-[(3R,6R)-6-methyl-1-{[6-methyl-2-(2H-1,2,3-triazol-2-yl)pyridin-3-yl]carbonyl}piperidin-3-yl]-2H-1,2,3-triazol-4-yl}propan-2-ol] | 222 nM | > 10000 nM
11 | COC(=O)c1cnn([C@@H]2CC[C@@H](C)N(C(=O)c3ccccc3-n3nccn3)C2)n1 [Example 24, Methyl 2-((3R,6R)-1-(2-(2H-1,2,3-triazol-2-yl)benzoyl)-6-methylpiperidin-3-yl)-2H-1,2,3-triazole-4-carboxylate] | 512 nM | > 10000 nM
